Assay results published in publication PMC10072198, “A covalent inhibitor targeting the papain-like protease from SARS-CoV-2 inhibits viral replication” (RSC Advances, 2023).
Entries after “also recorded” stand apart in the source; their conditions may differ.

What was measured:
PLpro from SARS-CoV-2 = PLpro from SARS-CoV-2 (Severe acute respiratory syndrome coronavirus 2, UniProt P0DTD1); experiment: Fluorescence based PLpro activity assay (R-L-R-G-G-AMC substrate); format: biochemical; settings: read-out: IC50 (PLpro inhibition)
[1] = tested on: SARS-CoV-2 (US/WA1/2020 isolate); experiment: SARS-CoV-2 infection of cells (dsRNA staining, RT-qPCR of viral RNA); format: cell-based; settings: for inhibition of SARS-CoV-2 replication in cells (in words): Calu-3 and/or Vero E6 cells
SARS-CoV-2 Mpro(3CL) = SARS-CoV-2 Mpro(3CL) (Severe acute respiratory syndrome coronavirus 2, UniProt P0DTD1); experiment: Fluorescence based Mpro(3CL) activity assay; format: biochemical
Method: Fluorescence based Mpro(3CL) activity assays
The ability of compounds 1, 19 and 20 to inhibit Mpro was determined using SensoLyte® 520 SARS-CoV-2 3CL Protease Activity Assay Kit (Anaspec), following the manufacturer’s instructions. Briefly, 40 µL diluted Mpro enzyme solution was added to a flat-bottom 96-well plate.
10 µL of varying concentrations of test compounds or GC 376 solution (an Mpro inhibitor) was (1 picture or pasted object on this page, not shown here) […]
(§1) subsequently added to the enzyme solution. The mixed solutions were incubated at room temperature for 20 min. 50 µL of Mpro protease substrate solution was added to each well, followed by 30 min incubation at 37 °C. The Mpro activity was detected by measuring the fluorescence emission intensity λ excitation=490 nm; λ emission=520nm.
(§2) Compound concentration µM
(§3) Fluorescence based PLpro activity assay in the presence of […] (DTT) and […]
(§4) PLpro inhibition assays were performed in the presence of 5 mM DTT and GSH to determine if […]
(§5) PLpro protease activity was measured with peptide substrate x-x-G-G-AMC (Bachem) in the presence or absence of 5 mM DTT and GSH.
(§6) PLpro was added into a black, flat-bottom 96-well plate at a final concentration of 50 nM with reaction buffer [150 mM NaCl, 20 mM HEPES, 0.1mg/mL BSA, pH 7.5] with or without 5 mM DTT […]
(§7) 0-80 µM for 20 min at room temperature. The enzyme activity assay was initiated by mixing the x-x-G-G-AMC probe at a final 50 µM and incubating for another 20 min at room temperature. The reaction was ended by adding 1 µL of aqueous citric acid. The PLpro activity was detected by measuring the fluorescence emission intensity λ excitation=360 nm; λ emission=460nm.

PLpro [2] = molecular target: T1, PLpro (Severe acute respiratory syndrome coronavirus 2, UniProt P0DTD1); experiment: PLpro irreversibility test (pre-incubation then dilution); format: biochemical, SARS-CoV-2
Description: All error bars represent the standard error of the mean for n = 3 replicates.

PLpro [3] = molecular target: T1, PLpro; experiment: PLpro activity assay in the presence of DTT and GSH; format: biochemical, SARS-CoV-2; settings: 5 mM glutathione or 5 mM DTT
Method: as §1, §2, §3, §4, §5, §6, §7

in vitro = settings: human
[4] = Determination of GSH t1/2 values; settings: buffer, pH 7.4
SARS-CoV PLpro = settings: cited from earlier work
SARS-CoV2 = settings: mouse, in vivo, po; cited from earlier work

Structure (SMILES)	IC50 (PLpro from SARS-CoV-2) [µM]	inhibition of SARS-CoV-2 replication in cells (in words) [1]	inhibition of Mpro (in words) (SARS-CoV-2 Mpro(3CL))	CC50 (in vitro) [µM]	further results
O=C(CCl)Nc1ccc2c(c1)NC(=O)CO2 [Compound 1]	18	blocked SARS-CoV-2 replication in both cell lines; also recorded: inhibited viral replication in both cell lines	did not inhibit; also recorded: no interaction	–	IC50 ([1]; Severe acute respiratory syndrome coronavirus 2, Calu-3 and Vero E6 cells, 72 hours, read-out: IC50 for inhibiting viral replication): < 20 µM; PLpro inhibition without pre-incubation (PLpro [2]; 500 nM, without pre-incubation at 50 μM): no inhibition; PLpro inhibition after pre-incubation and dilution (PLpro [2]; pre-incubated at 50 μM for 1 hour, then diluted to 500 nM): complete inhibition; PLpro inhibition in the presence of thiols (in words) (PLpro [3]): able to inhibit PLpro
O=C(CCl)Nc1ncc([N+](=O)[O-])s1 [Compound 2]	13	–	–	–	–
Cn1ncc(C(=O)CCl)n1 [Compound 3]	0.3	not effective in cells	–	62.5	–
O=C(NCCc1ccc(F)cc1)n1ccnc1 [Compound 4]	2.5	–	–	> 500	half-life at 0.05 mM [4]: 13.4 min
O=S(=O)(F)c1cncc(Cl)n1 [Compound 5]	1.7	–	–	> 500	–
C=CS(=O)(=O)c1nc2ccccc2s1 [Compound 6]	1	–	–	–	–
O=C1COc2cc([N+](=O)[O-])c(NC(=O)CCl)cc2N1 [Compound 19]	5	no inhibitory activity against SARS-CoV-2; also recorded: did not inhibit viral replication	no interaction	–	–
O=C(CCl)Nc1cc2c(cc1Br)CCC(=O)N2 [Compound 20]	6	no inhibitory activity against SARS-CoV-2; also recorded: did not inhibit viral replication	no interaction	–	–
Cc1ccc(N)cc1C(=O)N[C@H](C)c1cccc2ccccc12 [GRL-0617]	–	–	–	–	IC50 (SARS-CoV PLpro): […]; antiviral activity against SARS-CoV2 in mice (SARS-CoV2): moderate antiviral activity
